Measurements taken from article PMC9569593, “Measurement of Hepatic CYP3A4 and 2D6 Activity Using Radioiodine-Labeled O-Desmethylvenlafaxine” (International Journal of Molecular Sciences, 2022).
Like-named read-outs stand apart in the source and are kept apart here.

What was measured:
CYP = conditions: for fraction of 125I-ODV / peak of 125I-ODV metabolite: NADPH [+]
Method: Animal studies were approved by the Animal Care Committee at Kanazawa University (AP-173851) and were conducted in accordance with international standards for animal welfare and institutional guidelines. For preparation of the pooled mouse liver homogenates (MLH), three six-week-old ddY mice (Japan SLC, Tokyo, Japan) were euthanized under anesthesia with isoflurane, and the removed livers were weighed. After adding Krebs–Ringer phosphate buffer (pH 7.4), the pooled livers were homogenized with an ultrasonic homogenizer (SONIFIER250, Branson, MO, USA), and the protein content was measured according to the bicinchoninic acid method. The pooled MLH was stored at −80 °C.
For analysis of NADPH-mediated metabolism of ^125I-ODV, NADPH was used as an energy source of CYP-mediated metabolism. Adding an NADPH-generating system produced a state in which CYP was active. NADPH-mediated metabolism of ^125I-ODV was examined in a mixture consisting of an NADPH-generating system (0.5 mM β-NADP^+, 5 mM MgCl2, 5 mM G6P, and 1 U/mL G6PD), 100 mM sodium potassium phosphate buffer (pH 7.4), 50 μM EDTA disodium salt, and 1000 μg protein/20 μL pooled MLH in a final volume of 250 μL (NADPH [+]). […] The samples were incubated at 37 °C for 5, 15, 30, and 60 min with gentle shaking, ethanol was added to stop the reactions, and the samples were centrifuged at 18,000 g for 5 min. The supernatants in each sample were analyzed by HPLC. The mobile phase consisted of 70% 20 mM KH2PO4 buffer (pH 4.0) and 30% acetonitrile at a flow rate of 1.0 mL/min (n = 3).

CYP3A4 = conditions: CYP3A4-inhibited mice (ketoconazole 50 mg/kg i.p. 60 min before), i.v.
Method: ^125I-ODV was prepared to a radioactive concentration of 30 MBq/mL by the addition of saline. For metabolite analysis in CYP-inhibited mice, we produced model mice with reduced CYP3A4 or CYP2D6 activity by selective inhibition using ketoconazole or paroxetine. CYP3A4-inhibited mice were injected intraperitoneally with 50 mg/kg of ketoconazole at 60 min before injection of ^125I-ODV, and CYP2D6-inhibited mice were injected intraperitoneally with 30 mg/kg of paroxetine at 60 min before injection of ^125I-ODV. Each of three mice was administered ^125I-ODV via the tail vein (3.0 MBq/100 µL/mouse). At 30 min, the three fasted mice were euthanized under isoflurane, and each gallbladder was collected. The radioactive products in bile were analyzed by TLC using methanol/acetate at a ratio of 100:1. Bile was directly spotted onto a TLC plate.
To examine the biological distribution in CYP-inhibited mice, we produced model mice in the same way as for the analysis of metabolism in bile. At 5, 15, 30, and 60 min after ^125I-ODV injection, mice were euthanized under isoflurane (n = 4), and the same tissues were collected and quantified.

Structure (SMILES): CN(C)CC(c1ccc(O)c([125I])c1)C1(O)CCCCC1 (stereo not shown) [^125I-ODV, iodine-125-labeled O-desmethylvenlafaxine]
- fraction of 125I-ODV (CYP; end value of the decrease): ~54%
- peak of 125I-ODV metabolite (CYP; end value of the increase): ~46%
- fraction of 125I-ODV (CYP; start value of the decrease): about 85%
- peak of 125I-ODV metabolite (CYP; start value of the increase): about 0%
- percentage of metabolite (CYP; NADPH [−], 37 °C, 15 min): 1.52%
- Biological distribution, Blood (CYP3A4; 5 min): 1.91 %ID/g
- Biological distribution, Brain (CYP3A4; 5 min): 0.71 %ID/g
- Biological distribution, Gallbladder (CYP3A4; 5 min): 2.39 %ID/g
- Biological distribution, Heart (CYP3A4; 5 min): 5.73 %ID/g
- Biological distribution, Kidney (CYP3A4; 5 min): 21.72 %ID/g
- Biological distribution, Large intestines (CYP3A4; 5 min): 1.19 %ID/organ
- Biological distribution, Liver (CYP3A4; 5 min): 5.66 %ID/g
- Biological distribution, Lung (CYP3A4; 5 min): 29.72 %ID/g
- Biological distribution, Pancreas (CYP3A4; 5 min): 8.93 %ID/g
- Biological distribution, Small intestines (CYP3A4; 5 min): 6.06 %ID/organ
- Biological distribution, Spleen (CYP3A4; 5 min): 6.61 %ID/g
- Biological distribution, Stomach (CYP3A4; 5 min): 2.37 %ID/organ
- Biological distribution, Thyroid (CYP3A4; 5 min): 0.05 %ID/organ
- Biological distribution, Urine (CYP3A4; 5 min): 2.10 %ID/organ
- Biological distribution, Blood (CYP3A4; 15 min): 1.71 %ID/g
- Biological distribution, Brain (CYP3A4; 15 min): 0.80 %ID/g
- Biological distribution, Gallbladder (CYP3A4; 15 min): 5.43 %ID/g
- Biological distribution, Heart (CYP3A4; 15 min): 3.93 %ID/g
- Biological distribution, Kidney (CYP3A4; 15 min): 19.74 %ID/g
- Biological distribution, Large intestines (CYP3A4; 15 min): 1.00 %ID/organ
- Biological distribution, Liver (CYP3A4; 15 min): 4.72 %ID/g
- Biological distribution, Lung (CYP3A4; 15 min): 21.72 %ID/g
- Biological distribution, Pancreas (CYP3A4; 15 min): 5.94 %ID/g
- Biological distribution, Small intestines (CYP3A4; 15 min): 6.37 %ID/organ
- Biological distribution, Spleen (CYP3A4; 15 min): 6.35 %ID/g
- Biological distribution, Stomach (CYP3A4; 15 min): 2.34 %ID/organ
- Biological distribution, Thyroid (CYP3A4; 15 min): 0.05 %ID/organ
- Biological distribution, Urine (CYP3A4; 15 min): 5.25 %ID/organ
- Biological distribution, Blood (CYP3A4; 30 min): 1.44 %ID/g
- Biological distribution, Brain (CYP3A4; 30 min): 0.74 %ID/g
- Biological distribution, Gallbladder (CYP3A4; 30 min): 9.16 %ID/g
- Biological distribution, Heart (CYP3A4; 30 min): 2.34 %ID/g
- Biological distribution, Kidney (CYP3A4; 30 min): 15.65 %ID/g
- Biological distribution, Large intestines (CYP3A4; 30 min): 1.00 %ID/organ
- Biological distribution, Liver (CYP3A4; 30 min): 5.03 %ID/g
- Biological distribution, Lung (CYP3A4; 30 min): 11.31 %ID/g
- Biological distribution, Pancreas (CYP3A4; 30 min): 23.69 %ID/g
- Biological distribution, Small intestines (CYP3A4; 30 min): 7.71 %ID/organ
- Biological distribution, Spleen (CYP3A4; 30 min): 4.03 %ID/g
- Biological distribution, Stomach (CYP3A4; 30 min): 2.24 %ID/organ
- Biological distribution, Thyroid (CYP3A4; 30 min): 0.09 %ID/organ
- Biological distribution, Urine (CYP3A4; 30 min): 5.63 %ID/organ
- Biological distribution, Blood (CYP3A4; 60 min): 0.65 %ID/g
- Biological distribution, Brain (CYP3A4; 60 min): 0.52 %ID/g
- Biological distribution, Gallbladder (CYP3A4; 60 min): 20.14 %ID/g
- Biological distribution, Heart (CYP3A4; 60 min): 0.96 %ID/g
- Biological distribution, Kidney (CYP3A4; 60 min): 9.60 %ID/g
- Biological distribution, Large intestines (CYP3A4; 60 min): 0.68 %ID/organ
- Biological distribution, Liver (CYP3A4; 60 min): 2.12 %ID/g
- Biological distribution, Lung (CYP3A4; 60 min): 5.81 %ID/g
- Biological distribution, Pancreas (CYP3A4; 60 min): 2.77 %ID/g
- Biological distribution, Small intestines (CYP3A4; 60 min): 10.07 %ID/organ
- Biological distribution, Spleen (CYP3A4; 60 min): 1.94 %ID/g
- Biological distribution, Stomach (CYP3A4; 60 min): 1.90 %ID/organ
- Biological distribution, Thyroid (CYP3A4; 60 min): 0.11 %ID/organ
- Biological distribution, Urine (CYP3A4; 60 min): 2.01 %ID/organ
